# Results as given in US20040121936A1, “Composition” (Colgate-Palmolive Company, priority 2001, published 2004).
# “Also recorded” adds a separate entry of the source.
# Columns and labels:
# bacteria = assay: antibacterial efficacy by cup scrub method on humans against the composition without TCC; type: in vivo
# Procedure: Using the formulation of Example 1 or Example 2 but with varying amounts of TCC, the amide wherein R is cocoyl, p is 2 and n is 1, and the alcohol wherein R′ is lauryl and q is 7, antibacterial efficacy is measured using a cup scrub method on humans against the composition without TCC.
# [1] = stability of TCC in body cleansing composition (precipitate/crystals on storage); type: physicochemical; details: for Comments (precipitate/crystals of TCC): 0.15% TCC in body cleansing composition
# Excerpt: Further work on the usefulness of this invention may be seen in the stability data of Example 5. TCC at 0.15% was incorporated in a body cleansing composition of (which may also include the types described above). using Promidium CO alone and in combination with Laureth-7.
Molecule,"log reduction of bacteria (bacteria; TCC in the compositions, measured against a composition without TCC)","Comments (precipitate/crystals of TCC) ([1]; Promidium CO 0.675%, Laureth-7 0.675%)","Comments (precipitate/crystals of TCC) ([1]; Promidium CO 3.0%, Laureth-7 0.0%)",time for which no precipitate or crystals were observed ([1]; body cleansing composition with combination of Promidium CO and Laureth-7),effect of presence on antibacterial efficacy (bacteria; presence of Promidium Co and/or laureth-7 in the composition)
"O=C(Nc1ccc(Cl)cc1)Nc1ccc(Cl)c(Cl)c1 [TCC, 3,4,4′-trichlorocarbanilide]",greater than 1 log,no precipitate or crystals were observed; also recorded: No Precipitate or crystals even,precipitate/crystals of TCC were observed at the bottom of the container after 4-5 weeks; also recorded: Precipitate/Crystals in 4-5 Weeks,≥ 13 weeks,–
PPG-2 hydroxyethyl cocoamide [Promidium CO],–,–,–,–,does not significantly affect antibacterial efficacy
